Here are results for 18 compounds from US11912668B2, “GCN2 and perk kinase inhibitors and methods of use thereof” (Deciphera Pharmaceuticals, LLC, priority 2020, dated 2024).

For assay [1], the system named is phospho-GCN2 (Thr899) in HCT116 colorectal cancer cells. The assay is described as follows: HCT116 amino acid starved (-AA) phospho-GCN2 assay (Western blot). The format is cell-based. Conditions: Homo sapiens, HCT-116, 4 h, read-out: HCT116-AA pGCN2 Western Blot. On the procedure:
(§1) HCT116 colorectal cancer cells (catalog #CCL-247) were obtained from the American Type Culture Collect (ATTC, Manassas, VA). Briefly, cells were grown in RPMI 1640 supplemented with 10% heat inactivated fetal bovine serum (Invitrogen, Carlsbad, CA) and 1% Penicillin/Streptomycin/L-Glutamine at 37° C., 5% CO2, and 95% humidity. Cells were expanded until reaching 70-95% confluency at which point they were subcultured or harvested for assay use. Cells were seeded in 12-well culture plate at five hundred thousand cells per well in 1 mL complete growth medium and incubated overnight at 37° C., 5% CO2, and 95% humidity. The next day each well was replaced with 1 mL Earle's Balanced Salt Solution (EBSS, Invitrogen, Carlsbad, CA) supplemented with 10% Dialyzed Fetal Bovine Serum, 5.5 mM Glucose, 1% Penicillin/Streptomycin and 1% Vitamin solution (thermo #11120052). A serial dilution of test compound was dispensed into well. Plates were incubated for 4 h at 37° C., 5% CO2, and 95% humidity. At the end of the incubation, cells were washed with PBS supplemented with 1× Halt protease inhibitor, 1× Halt phosphatase inhibitor, 1× Sigma phosphatase inhibitor cocktail 2 and 1×EDTA and then lysed with M-PER Mammalian Protein Extraction Reagent supplemented with 3× of the inhibitor mix as described above. Cell lysates were sonicated with water bath sonicator (Qsonica, Newtown, CT) and supernatants were boiled with SDS buffer and reducing agent. Western blot was performed on each lysate to quantify phospho-GCN2 (Thr899), total GCN2, ATF4 and beta-Actin. Membranes were imaged with LI-COR Odyssey CLx Imaging System (LI-COR, Lincoln, NE). Data were analyzed using GraphPad Prism software (GraphPad, San Diego, CA) to calculate IC50 values.

In the next assay the target is PERK kinase (Homo sapiens (Human), UniProt Q9NZJ5). The assay is described as follows: Biochemical assay for PERK (coupled pyruvate kinase/lactate dehydrogenase assay). Conditions: 1 mM ATP, rate from 2-3 h time frame. The gist of the method: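 Coupled pyruvate kinase/lactate dehydrogenase readout of ATP hydrolysis via NADH oxidation (A340), 10 nM PERK, 0.25 mg/mL myelin basic protein, 1 mM ATP, pH 7.5 Tris/MgCl2 buffer, 1% DMSO. Absorbance followed 6 h at 30° C; rate from the 2-3 h window, normalised to no-compound and known-inhibitor controls, IC50 fitted.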
Chain of PERK kinase (Q9NZJ5 other isoform, or with tags, fused parts or gaps): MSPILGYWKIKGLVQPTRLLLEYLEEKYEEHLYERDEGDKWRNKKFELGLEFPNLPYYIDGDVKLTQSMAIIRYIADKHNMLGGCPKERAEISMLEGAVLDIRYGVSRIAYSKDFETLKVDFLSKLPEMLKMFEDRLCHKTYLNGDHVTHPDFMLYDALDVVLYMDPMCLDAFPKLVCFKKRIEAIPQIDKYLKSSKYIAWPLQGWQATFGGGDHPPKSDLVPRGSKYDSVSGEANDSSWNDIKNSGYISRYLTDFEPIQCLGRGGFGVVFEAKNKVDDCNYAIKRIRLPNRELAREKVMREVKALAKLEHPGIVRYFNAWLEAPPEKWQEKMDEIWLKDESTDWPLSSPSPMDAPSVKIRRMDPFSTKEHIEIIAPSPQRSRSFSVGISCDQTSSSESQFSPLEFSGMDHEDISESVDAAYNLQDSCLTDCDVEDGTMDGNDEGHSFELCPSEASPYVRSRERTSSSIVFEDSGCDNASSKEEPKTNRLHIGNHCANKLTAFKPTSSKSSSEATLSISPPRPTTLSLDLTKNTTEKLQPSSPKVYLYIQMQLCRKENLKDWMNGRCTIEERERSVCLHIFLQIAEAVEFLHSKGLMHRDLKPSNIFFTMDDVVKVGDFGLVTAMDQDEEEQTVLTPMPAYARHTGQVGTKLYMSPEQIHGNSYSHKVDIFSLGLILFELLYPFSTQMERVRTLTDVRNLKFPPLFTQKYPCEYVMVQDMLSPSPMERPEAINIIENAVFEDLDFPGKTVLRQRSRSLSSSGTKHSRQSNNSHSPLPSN

The test system of the next assay is CCRF-CEM leukemia cells. The assay can be described thus: CCRF-CEM ASNase cell proliferation assay, phenotypic assay for cellular inhibition of GCN2. In kind it is cell-based. Conditions: Homo sapiens; ASNase treated CCRF-CEM cells, 1 mU/mL ASNase, 72 h. As to the method: CCRF-CEM leukemia cells (catalog #CCL-116) were obtained from the American Type Culture Collect (ATTC, Manassas, VA). Cells were grown in RPMI-1640 medium supplemented with 10% heat-inactivated fetal bovine serum (Invitrogen, Carlsbad, CA) and 1% Penicillin/Streptomycin/L-Glutamine at 37° C., 5% CO2, and 95% humidity. Cells were expanded until reaching one million cells per mL at which time they are subcultured or harvested for assay use. Ten thousand cells per well in 200 μL RPMI-1640 supplemented with 10% heat-inactivated fetal bovine serum and 1% Penicillin/Streptomycin were dispensed into a 96-well black clear bottom plate. A serial dilution of test compound and 1 mU/mL ASNase was added in triplicate and plates were incubated for 72 h at 37° C., 5% CO2, and 95% humidity. At the end of the incubation, 40 μL of a […] solution of resazurin (Sigma, St. Louis, MO) in PBS was added to each well of the plate and plates were incubated for an additional 6 h at 37° C., 5% CO2, and 95% humidity. Plates were read on a Synergy2 or equivalent reader (Biotek, Winooski VT) using an excitation of 540 nm and an emission of 600 nm. Data was analyzed using GraphPad Prism software (GraphPad, San Diego, CA) to calculate IC50 values.

The next assay concerns the target GCN2 kinase (Homo sapiens (Human), UniProt Q9P2K8). The assay can be described thus: Biochemical assay for GCN2 (TR-FRET kinase activity assay). Conditions: 1 mM ATP, 3-hour incubation. The method, boiled down: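 TR-FRET assay with 2 nM GCN2, 130 nM GFP-eIF2α substrate, 0.2 mg/mL E. coli tRNA and 1 mM ATP; compounds (0.5% DMSO) reacted 3 h. Stopped with 20 mM EDTA plus 2 nM Tb-anti-peIF2α (pSer52), 60 min RT; 520/490 ratio converted to % inhibition, IC50 from four-parameter fit.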
A general note: Time-resolved FRET reads energy transfer from a long-lived donor to a nearby acceptor.

Assay [2] concerns ATF4 in HCT116 colorectal cancer cells. The assay is described as follows: HCT116 amino acid starved (-AA) ATF4 assay (Western blot). In kind it is cell-based. Conditions: Homo sapiens, HCT-116, 4 h. On the procedure: as §1
For orientation: In western blotting, separated proteins are transferred to a membrane and probed.

Assay [3] relates to ATF4 in CCRF-CEM leukemia cells (PERK). The assay is described as follows: CCRF-CEM TG ATF4 ELISA, phenotypic assay for cellular inhibition of PERK preactivated by thapsigargin. Conditions: Homo sapiens; Thapsigargin (1 μM) stimulated CCRF-CEM cells. In kind it is cell-based. As to the method: CCRF-CEM leukemia cells (catalog #CCL-116) were obtained from the American Type Culture Collection (ATTC, Manassas, VA). Briefly, cells were grown in RPMI-1640 medium supplemented with 10% heat-inactivated fetal bovine serum (Invitrogen, Carlsbad, CA) and 1% Penicillin/Streptomycin/L-Glutamine at 37° C., 5% CO2, and 95% humidity. Cells were expanded until reaching one million cells per mL at which time they were subcultured or harvested for assay use. One million five hundred thousand cells per well in 1 mL complete growth medium were dispensed into 12-well plates and incubated overnight. A serial dilution of test compound was added and cells were incubated at 37° C., 5% CO2, and 95% for three hours, then 1 μM thapsigargin was added and cells were incubated for an additional hour at 37° C., 5% CO2, and 95%. Cells were lysed then ATF4 levels were measured using an ELISA assay (Proteintech, Rosemont, IL). Absorbance was measured at 450 nm and 544 nM using a Synergy2 or equivalent reader (Biotek, Winooski VT). Data was analyzed using PRISM software (Graphpad, San Diego, CA) to calculate IC50 values.

Chain of GCN2 kinase (Q9P2K8 whole entry): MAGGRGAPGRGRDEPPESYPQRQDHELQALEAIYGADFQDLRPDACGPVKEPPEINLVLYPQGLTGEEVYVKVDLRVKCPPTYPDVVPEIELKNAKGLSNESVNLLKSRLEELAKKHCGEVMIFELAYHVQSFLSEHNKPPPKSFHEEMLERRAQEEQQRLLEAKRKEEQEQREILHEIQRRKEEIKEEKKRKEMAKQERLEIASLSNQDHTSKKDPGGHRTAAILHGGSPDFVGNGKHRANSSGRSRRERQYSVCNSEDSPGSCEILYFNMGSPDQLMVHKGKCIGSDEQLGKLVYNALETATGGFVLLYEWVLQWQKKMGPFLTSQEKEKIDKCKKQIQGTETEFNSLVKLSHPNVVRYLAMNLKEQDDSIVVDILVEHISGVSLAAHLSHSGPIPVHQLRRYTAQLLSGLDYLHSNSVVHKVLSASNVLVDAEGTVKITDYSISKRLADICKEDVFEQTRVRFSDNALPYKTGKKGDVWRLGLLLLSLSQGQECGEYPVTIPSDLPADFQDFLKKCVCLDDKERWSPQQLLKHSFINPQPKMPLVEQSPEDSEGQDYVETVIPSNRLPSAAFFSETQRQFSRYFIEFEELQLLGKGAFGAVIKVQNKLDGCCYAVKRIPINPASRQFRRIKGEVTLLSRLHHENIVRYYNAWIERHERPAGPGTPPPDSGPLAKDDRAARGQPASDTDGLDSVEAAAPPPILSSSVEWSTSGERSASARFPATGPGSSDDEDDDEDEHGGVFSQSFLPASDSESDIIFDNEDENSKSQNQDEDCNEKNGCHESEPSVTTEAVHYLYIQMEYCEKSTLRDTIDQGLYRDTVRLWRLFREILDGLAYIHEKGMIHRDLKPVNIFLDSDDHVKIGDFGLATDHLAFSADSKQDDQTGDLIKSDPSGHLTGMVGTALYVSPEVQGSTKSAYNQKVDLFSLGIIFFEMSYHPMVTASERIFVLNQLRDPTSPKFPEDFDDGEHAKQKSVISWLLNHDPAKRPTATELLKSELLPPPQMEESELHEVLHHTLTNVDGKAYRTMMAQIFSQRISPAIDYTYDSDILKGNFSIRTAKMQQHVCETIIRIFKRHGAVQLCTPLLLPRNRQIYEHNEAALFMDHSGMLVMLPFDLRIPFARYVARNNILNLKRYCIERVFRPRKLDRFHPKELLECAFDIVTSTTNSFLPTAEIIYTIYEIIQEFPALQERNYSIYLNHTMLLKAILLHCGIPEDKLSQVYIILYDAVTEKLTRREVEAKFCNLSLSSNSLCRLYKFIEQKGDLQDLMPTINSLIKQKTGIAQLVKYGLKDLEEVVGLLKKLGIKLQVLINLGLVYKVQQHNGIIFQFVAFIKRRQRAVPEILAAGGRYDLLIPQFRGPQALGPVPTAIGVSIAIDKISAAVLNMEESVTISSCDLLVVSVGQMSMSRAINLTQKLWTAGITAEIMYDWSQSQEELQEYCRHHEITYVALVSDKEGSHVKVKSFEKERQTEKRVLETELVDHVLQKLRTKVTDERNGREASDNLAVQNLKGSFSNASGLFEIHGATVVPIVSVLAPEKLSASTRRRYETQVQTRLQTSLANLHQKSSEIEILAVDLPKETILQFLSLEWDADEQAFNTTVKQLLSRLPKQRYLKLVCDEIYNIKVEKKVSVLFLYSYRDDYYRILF

Take `CNc1cc2nc(C)c(-c3cc(F)cc(NS(=O)(=O)c4cc(Cl)cnc4OC)c3)cc2cn1` [Example 23]: the IC50 is at most 100 nM in assay [1]; at most 100 nM at PERK kinase; 100 to 500 nM in the assay on CCRF-CEM leukemia cells; at most 100 nM against GCN2 kinase; at most 100 nM in assay [2]; 1000 to 10000 nM in assay [3].

Turning to `CNc1ncc2cc(-c3cccc(NS(=O)(=O)c4cc(Cl)cnc4OC)c3Cl)c(C)nc2n1` [Example 67], the IC50 was at most 100 nM in assay [1]; at most 100 nM at PERK kinase; at most 100 nM with CCRF-CEM leukemia cells; at most 100 nM on GCN2 kinase; at most 100 nM in assay [2]; 1000 to 10000 nM in assay [3].

Turning to `CNc1ncc2cc(-c3cccc(NS(=O)(=O)c4cc(Cl)cc(C(=O)OC)c4Cl)c3F)c(NC)nc2n1` [Example 102], the IC50 in assay [1] was at most 100 nM; at PERK kinase it was 100 to 500 nM; with CCRF-CEM leukemia cells it was at most 100 nM; against GCN2 kinase, at most 100 nM; in assay [2], at most 100 nM; in assay [3], 1000 to 10000 nM.

`CCNc1ncc2cc(-c3cccc(NS(=O)(=O)c4cc(Cl)cnc4OC)c3F)c(NC)nc2n1` [Example 115]: the IC50 in assay [1] is at most 100 nM; at PERK kinase, at most 100 nM; in the assay with CCRF-CEM leukemia cells, at most 100 nM; on GCN2 kinase it was at most 100 nM; in assay [2] it was at most 100 nM; in assay [3], 1000 to 10000 nM.

As for `CNc1ncc2cc(-c3cccc(NS(=O)(=O)c4cc(Cl)cnc4OC)c3OC)c(C)nc2n1` [Example 89], the IC50 in assay [1] is at most 100 nM; against PERK kinase, at most 100 nM; in the assay on CCRF-CEM leukemia cells it was 100 to 500 nM; against GCN2 kinase it was 100 to 500 nM; in assay [2] it was 100 to 500 nM; in assay [3] it was 1000 to 10000 nM.

Take `CNc1cc2ncc(-c3cccc(NS(=O)(=O)c4cc(Cl)cnc4OC)c3F)cc2cn1` [Example 56]: the IC50 in assay [1] is at most 100 nM; on PERK kinase, at most 100 nM; with CCRF-CEM leukemia cells, at most 100 nM; against GCN2 kinase, 100 to 500 nM; in assay [2], at most 100 nM; in assay [3], 500 to 1000 nM.

Consider `CNc1ncc2cc(-c3cc(NS(=O)(=O)c4cc(Cl)cnc4OC)ccc3Cl)c(C)nc2n1` [Example 68], for which the IC50 in assay [1] was at most 100 nM; against PERK kinase, at most 100 nM; with CCRF-CEM leukemia cells, at most 100 nM; against GCN2 kinase it was at most 100 nM; in assay [2], at most 100 nM; in assay [3], 1000 to 10000 nM.

In the case of `CNc1ncc2cc(-c3cccc(NS(=O)(=O)c4cc(Cl)cc(C(C)(C)O)c4Cl)c3F)c(NC)nc2n1` [Example 74], the IC50 in assay [1] was at most 100 nM; against PERK kinase it was 100 to 500 nM; in the assay with CCRF-CEM leukemia cells, at most 100 nM; on GCN2 kinase, 100 to 500 nM; in assay [2], at most 100 nM; in assay [3] it was 1000 to 10000 nM.

With `CNc1ncc2cc(-c3cccc(NS(=O)(=O)c4cc(Cl)cnc4OC)c3C)c(C)nc2n1` [Example 51], the IC50 in assay [1] is at most 100 nM; on PERK kinase, 100 to 500 nM; in the assay with CCRF-CEM leukemia cells it was at most 100 nM; on GCN2 kinase it was at most 100 nM; in assay [2], at most 100 nM; in assay [3] it was 1000 to 10000 nM.

As to `COc1ncc(Cl)cc1S(=O)(=O)Nc1cccc(-c2cnc3nc(Nc4cnn(C)c4)ncc3c2)c1` [Example 59], the IC50 in assay [1] was at most 100 nM; on PERK kinase it was 100 to 500 nM; in the assay on CCRF-CEM leukemia cells, at most 100 nM; against GCN2 kinase it was at most 100 nM; in assay [2], at most 100 nM; in assay [3] it was 1000 to 10000 nM.

As to `CNc1ncc2cc(-c3cccc(NS(=O)(=O)c4cc(Cl)cnc4NC)c3F)ccc2n1` [Example 50], the IC50 in assay [1] is at most 100 nM; against PERK kinase it was at most 100 nM; with CCRF-CEM leukemia cells, at most 100 nM; on GCN2 kinase, at most 100 nM; in assay [2], at most 100 nM; in assay [3] it was 1000 to 10000 nM.

For `CNc1ncc2cc(-c3cc(F)cc(NS(=O)(=O)c4cc(Cl)cnc4OC)c3)c(NC)nc2n1` [Example 11], the IC50 in assay [1] is at most 100 nM; against PERK kinase, 100 to 500 nM; in the assay on CCRF-CEM leukemia cells it was 100 to 500 nM; against GCN2 kinase it was at most 100 nM; in assay [2], at most 100 nM; in assay [3] it was 1000 to 10000 nM.

Turning to `CNc1ncc2cc(-c3cc(F)cc(NS(=O)(=O)c4cc(Cl)cc(CO)c4Cl)c3)c(NC)nc2n1` [Example 57], the IC50 in assay [1] is at most 100 nM; at PERK kinase it was at most 100 nM; with CCRF-CEM leukemia cells, at most 100 nM; at GCN2 kinase, at most 100 nM; in assay [2] it was at most 100 nM; in assay [3] it was 1000 to 10000 nM.

`CNc1cc2nc(C)c(-c3cccc(NS(=O)(=O)c4cc(Cl)cnc4OC)c3Cl)cc2cn1` [Example 127]: the IC50 in assay [1] is at most 100 nM; against PERK kinase it was at most 100 nM; in the assay on CCRF-CEM leukemia cells, at most 100 nM; at GCN2 kinase, at most 100 nM; in assay [2] it was at most 100 nM; in assay [3], 500 to 1000 nM.

Take `CNc1ncc2cc(-c3ccnc(NS(=O)(=O)c4cc(Cl)cnc4OC)c3F)c(OC)nc2n1` [Example 136]: the IC50 in assay [1] is at most 100 nM; against PERK kinase it was 100 to 500 nM; with CCRF-CEM leukemia cells, 100 to 500 nM; at GCN2 kinase, at most 100 nM; in assay [2] it was 100 to 500 nM; in assay [3], 1000 to 10000 nM.

For the compound `CNc1cc2nc(C)c(-c3cc(NS(=O)(=O)c4cc(Cl)cc(CO)c4Cl)c(F)cc3Br)cc2cn1` [Example 14], the IC50 was 100 to 500 nM in assay [1]; 100 to 500 nM at PERK kinase; 1000 to 10000 nM in the assay on CCRF-CEM leukemia cells; at most 100 nM against GCN2 kinase; 500 to 1000 nM in assay [2]; 1000 to 10000 nM in assay [3].

`CNc1ncc2cc(-c3cccc(NS(=O)(=O)c4cc(Cl)cnc4NC)c3F)c(C)nc2n1` [Example 90]: the IC50 in assay [1] is at most 100 nM; on PERK kinase, at most 100 nM; with CCRF-CEM leukemia cells, at most 100 nM; on GCN2 kinase, at most 100 nM; in assay [2], at most 100 nM; in assay [3] it was 1000 to 10000 nM.

For the compound `CNc1cc2nc(NC)c(-c3cccc(NS(=O)(=O)c4cc(Cl)cnc4OC)c3Cl)cc2cn1` [Example 113], the IC50 in assay [1] is at most 100 nM; against PERK kinase it was 100 to 500 nM; in the assay on CCRF-CEM leukemia cells, at most 100 nM; against GCN2 kinase, 100 to 500 nM; in assay [2], 100 to 500 nM; in assay [3], 500 to 1000 nM.
